# Assay results published in patent US20200237759A1, “DOSAGE REGIME AND METHOD FOR TREATING PULMONARY ARTERIAL HYPERTENSION” (Altavant Sciences GmbH, priority 2019, published 2020).
# Legend:
# [1] = system: plasma 5-HIAA (a PD marker of 5-HT synthesis); assay: Part 2 MAD biomarker: plasma 5-HIAA change from Day 1; assay type: in vivo, human; details: Day 14
# Excerpt: (§1) Biomarkers were to be evaluated in Part 2 by measuring concentrations of serotonin (5-hydroxytryptamine [5-HT]) in serum and 5-hydroxyindoleacetic acid (5-HIAA) in plasma and urine. As well, the relationship of biomarkers to PK parameters was to be evaluated.
# (§2) The biomarker analysis was to be based on the Biomarker Population (all subjects with evaluable biomarker measurements at baseline [Day 1 predose] and at least one after dosing [Day 7 or Day 14]).
# (§3) Biomarker data were to be collected only in Part 2. The following biomarkers were to be analyzed: • Serum 5-HT • Plasma 5-HIAA • Urine 5-HIAA/24 hours (as measured, adjusted, estimated, and per gram creatinine)
# The a priori primary biomarker endpoint was to be the change in plasma 5-HIAA concentration on Day 14 from Day 1.
# Linear regression was to be performed using biomarker changes, absolute and relative (%), from Day 1, at predose on Day 7 or Day 14 versus AUC0-24, Cmax, and Cmin in corresponding study days. The slopes and corresponding 95% confidence intervals (CIs) were to be tabulated.
# Summary statistics (mean, standard deviation [SD], median, minimum [Min], and maximum [Max]) were to be tabulated for each biomarker, by Cohort, with absolute and relative (%) changes from Day 1 predose.
# The values were to be tabulated with P values testing whether the difference of changes was equal to 0.
# The biomarker portion of the study was conducted in Part 2 MAD using the Biomarker Population. The biomarkers evaluated were serum 5-HT and plasma 5-HIAA, as well as urine 5-HIAA/24 hours (as measured, adjusted, estimated, and per gram creatinine). Urinary 5-HIAA was determined by a validated (21 C.F.R. 58, GLP-compliant) method using liquid chromatographic separation and tandem mass spectrometry detection.
# The Biomarker Population consisted of all subjects with evaluable baseline (Day 1 predose) and at least one postdose (Day 7 or Day 14) biomarker measurements.
# Biomarker data were analyzed for each KAR5585 dose separately, for all KAR5585 doses pooled, and for all placebo subjects pooled. […]
# urine 5-HIAA/24 hours = assay: Part 2 MAD biomarker: urine 5-HIAA/24 hours change from Day 1; assay type: in vivo, human
# Excerpt: as §1, §2, §3
# Linear regression was to be performed using biomarker changes, absolute and relative (%), from Day 1, at predose on Day 7 or Day 14 versus AUC0-24, Cmax, and Cmin in corresponding study days. The slopes and corresponding 95% confidence intervals (CIs) were to be tabulated. […]
# The biomarker portion of the study was conducted in Part 2 MAD using the Biomarker Population. The biomarkers evaluated were serum 5-HT and plasma 5-HIAA, as well as urine 5-HIAA/24 hours (as measured, adjusted, estimated, and per gram creatinine). Urinary 5-HIAA was determined by a validated (21 C.F.R. 58, GLP-compliant) method using liquid chromatographic separation and tandem mass spectrometry detection. […]
# Biomarker data were analyzed for each KAR5585 dose separately, for all KAR5585 doses pooled, and for all placebo subjects pooled.
# Urine 5 HIAA/24 hour was analyzed in 4 different manners: as measured in the 24-hour collection and (in order to correct for any collection errors) adjusted for creatinine excretion, estimated by the expected creatinine excretion for the subject (as defined in and expressed per gram creatinine. Results were similar for each of the 4 manners and are presented in this report for measured urine. Tables and figures for adjusted, estimated, and per-gram creatinine results are presented in Section 14. […]
# clinical = details: human, plasma, oral, 100 mg
# Description: Food effect was to be evaluated in Part 1, Period 2.
# Part 2 (MAD): BID doses (separated by approximately 12 hours on Days 1 to 13) and a single AM dose on Day 14. One or more of the MAD Cohort could have been dosed once daily (QD).
# (§4) Pharmacokinetic data were to be summarized descriptively.
# [2] = Part 1 SAD plasma pharmacokinetics of KAR5585 and KAR5417 after a single oral dose of KAR5585 (fasting; fed food effect); details: for AUC0-inf Geometric Mean / AUC0-tau Geometric Mean / Cmax Geometric Mean: 400 mg KAR5585 single oral dose
# Description: Food effect was to be evaluated in Part 1, Period 2. Part 2 was permitted to begin before Part 1 was completed and, in each part, the data from each dose Cohort were to be reviewed for safety before the next dose Cohort was enrolled.
# Part 1 had 6 Cohorts of 12 subjects each (for a total of 72 subjects) and Part 2 had 4 Cohorts of 12 subjects each (for a total of 48 subjects). In Part 1, the 12 subjects in Cohort 3 (400 mg) were studied twice, once under fasting conditions (Period 1) and once under fed conditions (Period 2) for food-effect assessment.
# as §4
# [3] = 100 mg to 700 mg single dose, 7-fold increase in dose
# [4] = 700 mg to 2000 mg single dose, 2.86-fold increase in dose
# [5] = arithmetic mean, plasma KAR5417 after single oral 100 mg KAR5585, fasted, Cohort 1
# [6] = arithmetic mean, plasma KAR5417 after single oral 700 mg KAR5585, fasted, Cohort 4
# [7] = arithmetic mean, plasma KAR5417 after single oral 1200 mg KAR5585, fasted, Cohort 5
# [8] = geometric mean, plasma KAR5417 after single oral 200 mg KAR5585, fasted, Cohort 2
# [9] = geometric mean, plasma KAR5417 after single oral 400 mg KAR5585, fed, Cohort 3B
# [10] = geometric mean, plasma KAR5417 after single oral 1200 mg KAR5585, fasted, Cohort 5
# [11] = geometric mean, plasma KAR5417 after single oral 2000 mg KAR5585, fasted, Cohort 6
compound,measurement,setting,value
"Nc1nc(O[C@H](c2ccc(Cl)cc2-c2ccccc2)C(F)(F)F)cc(N2CCC3(CC2)CN[C@H](C(=O)O)C3)n1 [KAR5417, (S)-8-(2-amino-6-((R)-1-(5-chloro-[1,1′-biphenyl]-2-yl)-2,2,2-trifluoroeth-oxy)pyrimidin-4-yl)-2,8-diazaspiro[4.5]decane-3-carboxylic acid]","correlation of absolute and relative changes from baseline in plasma 5-HIAA with AUC0-24, Cmax, C12 and AUC0-12",[1],significantly correlated
same,"correlation of change from baseline in measured urine 5-HIAA with AUC0-24, Cmax, C12 or AUC0-12",urine 5-HIAA/24 hours; Day 7,no significant correlations
same,"correlation of change from baseline in measured urine 5-HIAA with AUC0-24, Cmax, C12 or AUC0-12",urine 5-HIAA/24 hours; Day 14,significantly correlated
same,concentration at 24 h,clinical,19.7 ng/mL
same,increase in mean Cmax,"[2]; 100 mg (Cohort 1) to 700 mg (Cohort 4), 7-fold increase in dose",7.27 fold
same,increase in mean AUC0-24,[2]; [3],6.3 fold
same,increase in mean AUC0-inf,[2]; [3],6.8 fold
same,exposure (AUC0-tau and AUC0-inf) under fed relative to fasting conditions,[2]; 400 mg KAR5585 single dose,approximately 2 fold
same,"increase in Cmax, fed relative to fasting",[2]; 400 mg KAR5585 single dose,1.8 fold
same,"increase in mean AUC0-inf, fed relative to fasting",[2]; 400 mg KAR5585 single dose,1.8 fold
same,peak exposure (Cmax) higher under fed relative to fasting conditions,[2]; 400 mg KAR5585 single dose,approximately 1.87 fold
same,peak mean concentrations higher under fed relative to fasting conditions,[2]; 400 mg KAR5585 single dose,approximately 177%
same,tmax,"[2]; 400 mg KAR5585 single dose, fasted",4 hour postdose
same,increase in mean Cmax,"[2]; 700 mg (Cohort 4) to 2000 mg (Cohort 6), 2.86-fold increase in dose",1.38 fold
same,increase in AUC0-24,[2]; [4],1.7 fold
same,increase in AUC0-inf,[2]; [4],1.81 fold
same,AUC0-inf Geometric Mean,[2]; Cohort 3A (Fasting),3280 ng·h/mL
same,AUC0-tau Geometric Mean,[2]; Cohort 3A (Fasting),3120 ng·h/mL
same,Cmax Geometric Mean,[2]; Cohort 3A (Fasting),444 ng/mL
same,Cmax Geometric LS Mean Ratio,"[2]; Cohort 3B (Fed) versus Cohort 3A (Fasting), 400 mg KAR5585",1.87
same,AUC0-inf Geometric Mean,[2]; Cohort 3B (Fed),6630 ng·h/mL
same,AUC0-tau Geometric Mean,[2]; Cohort 3B (Fed),6360 ng·h/mL
same,Cmax Geometric Mean,[2]; Cohort 3B (Fed),831 ng/mL
same,time by which all subjects had measurable concentrations,[2]; Part 1 SAD,≤ 0.25 hours postdose
same,plasma concentrations relative to plasma concentrations of KAR5585,"[2]; Part 1 SAD, fasting",approximately 10 fold
same,AUC0-12,[2]; [5],704 ng·h/mL
same,AUC0-∞,[2]; [5],886 ng·h/mL
same,t1/2,[2]; [5],4.67 h
same,AUC0-12,[2]; [6],4350 ng·h/mL
same,AUC0-24,[2]; [6],5310 ng·h/mL
same,AUC0-12,[2]; [7],5350 ng·h/mL
same,Cmax,[2]; [7],896 ng/mL
same,AUC0-12,"[2]; arithmetic mean, plasma KAR5417 after single oral 2000 mg KAR5585, fasted, Cohort 6",6910 ng·h/mL
same,AUC0-24,[2]; [8],940 ng·h/mL
same,t1/2,[2]; [8],5.29 h
same,AUC0-12,[2]; [9],4170 ng·h/mL
same,AUC0-24,[2]; [9],5370 ng·h/mL
same,AUC0-tau,[2]; [9],6360 ng·h/mL
same,AUC0-∞,[2]; [9],6630 ng·h/mL
same,Cmax,[2]; [9],831 ng/mL
same,t1/2,[2]; [9],19.8 h
same,AUC0-12,"[2]; geometric mean, plasma KAR5417 after single oral 700 mg KAR5585, fasted, Cohort 4",3050 ng·h/mL
same,AUC0-tau,[2]; [10],6580 ng·h/mL
same,AUC0-∞,[2]; [10],6880 ng·h/mL
same,Cmax,[2]; [10],764 ng/mL
same,t1/2,[2]; [10],14.0 h
same,AUC0-12,[2]; [11],6550 ng·h/mL
same,Cmax,[2]; [11],1030 ng/mL
same,t1/2,[2]; [11],22.1 h
same,tmax,"[2]; median, plasma KAR5417 after single oral 100 mg KAR5585, fasted, Cohort 1",4.00 h
same,tmax,"[2]; median, plasma KAR5417 after single oral 400 mg KAR5585, fed, Cohort 3B",4.00 h
same,tmax,"[2]; median, plasma KAR5417 after single oral 700 mg KAR5585, fasted, Cohort 4",4.00 h
same,time up to which concentrations remained above the LLOQ,"[2]; single 100 mg KAR5585, fasting",up to 12 hours
same,mean apparent terminal (elimination) half-life,[2]; single 100 mg dose of KAR5585,4.67 h
same,time up to which concentrations remained above the LLOQ,"[2]; single 200 mg KAR5585, fasting",≤ 24 h
same,time up to which concentrations remained above the LLOQ,"[2]; single 400 mg KAR5585, fasting",≤ 36 h
same,time up to which concentrations remained above the LLOQ,"[2]; single 700 mg KAR5585, fasting",≤ 48 h
same,time up to which concentrations remained above the LLOQ,"[2]; single 1200 mg KAR5585, fasting",≤ 48 h
same,time up to which concentrations remained above the LLOQ,"[2]; single 2000 mg KAR5585, fasting",≤ 72 h
same,elimination half-life,"[2]; single dose 400 mg KAR5585, Part 1 Cohort 3B",20.5 h
